Active and inactive are the calls of the source.

One assay can be described thus: cells. The format is functional.
The target in assay [1] is Luciferin 4-monooxygenase (Photinus pyralis, UniProt P08659). Kind of assay: inhibition of purified Photinus pyralis luciferase – biochemical, luminescence, dose response (AID 1891).
Assay [2] can be described thus: Luminescence Cell-Based Dose Confirmation HTS to Identify Inhibitors of Platelet Dense Granule Release. [Related pubchem assays: 1663 (Primary HTS), 1678 (Summary of Project)]. The format is functional.
In the next assay the target is T1, Protein skinhead-1 (Caenorhabditis elegans, UniProt P34707).
T1 sequence (P34707 whole entry): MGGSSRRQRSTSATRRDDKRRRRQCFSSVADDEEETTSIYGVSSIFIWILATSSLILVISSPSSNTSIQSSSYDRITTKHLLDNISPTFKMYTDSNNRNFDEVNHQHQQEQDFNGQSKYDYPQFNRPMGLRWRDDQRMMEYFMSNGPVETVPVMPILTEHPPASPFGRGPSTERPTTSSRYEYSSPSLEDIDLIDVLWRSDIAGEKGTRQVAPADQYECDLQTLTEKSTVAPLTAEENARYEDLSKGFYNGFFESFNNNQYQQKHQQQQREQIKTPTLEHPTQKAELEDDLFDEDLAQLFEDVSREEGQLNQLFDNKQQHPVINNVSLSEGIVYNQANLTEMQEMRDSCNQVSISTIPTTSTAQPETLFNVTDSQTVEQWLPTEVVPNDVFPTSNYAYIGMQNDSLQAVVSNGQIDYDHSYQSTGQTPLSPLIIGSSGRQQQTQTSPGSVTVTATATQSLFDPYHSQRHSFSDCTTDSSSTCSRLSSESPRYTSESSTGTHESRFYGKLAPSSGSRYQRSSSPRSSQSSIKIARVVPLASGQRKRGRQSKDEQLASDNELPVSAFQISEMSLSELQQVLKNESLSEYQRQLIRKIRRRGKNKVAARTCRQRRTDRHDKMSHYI
The format is functional.

A short description of assay [3]: viability of PTEN-deleted HCT116 cells – cell-based, HCT116 PTEN knockout, dose response (AID 1047).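 Also: HCT116 colon tumor cells with PTEN knocked out; cells exposed to compound for 60 hours before readout; potency for loss of cell viability measured by luminescence.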 In kind it is functional.
Assay [4] can be described thus: viability of HCT116 lacking mutant beta-catenin – cell-based, human colon tumor, dose response (AID 1045).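 Also: HCT116 colon tumor cells with beta catenin knocked out; cells exposed to compound for 60 hours.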 The format is functional.
The nature of assay [5]: Trypanosoma cruzi growth suppression in host cells – NIH3T3 host cells, beta-gal luminescence, confirmation (AID 2044).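 Also: intracellular parasites grown in NIH/3T3 mouse fibroblasts as host cells; luminescent beta-galactosidase reporter signal from transgenic T. cruzi replicating inside host cells; inhibitors lower the luminescence signal.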 In kind it is functional, cell-based.
The nature of assay [6]: NIH3T3 cell viability loss – ATP luminescence, mouse fibroblasts, counter-screen, dose response (AID 2010).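 Also: cells exposed to compound for about 90 hours before reading.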 In kind it is functional, cell-based. Background: Counterscreens check selectivity or assay interference.
Assay [7] concerns the target T2, Corticotropin-releasing factor receptor 2/Corticotropin-releasing factor-binding protein (Homo sapiens, UniProt P24387+Q13324).
T2 sequence (Q13324 whole entry): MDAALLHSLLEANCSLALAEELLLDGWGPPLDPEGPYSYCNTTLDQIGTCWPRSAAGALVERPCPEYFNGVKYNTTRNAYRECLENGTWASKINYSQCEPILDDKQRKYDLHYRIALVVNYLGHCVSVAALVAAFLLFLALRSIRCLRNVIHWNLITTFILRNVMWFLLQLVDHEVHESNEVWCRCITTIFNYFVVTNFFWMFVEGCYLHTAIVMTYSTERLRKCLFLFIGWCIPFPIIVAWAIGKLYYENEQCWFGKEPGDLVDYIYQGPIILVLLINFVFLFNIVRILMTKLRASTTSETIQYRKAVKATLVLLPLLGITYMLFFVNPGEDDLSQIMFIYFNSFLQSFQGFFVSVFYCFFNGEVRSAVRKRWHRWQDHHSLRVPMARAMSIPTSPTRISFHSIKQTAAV
T2 sequence (P24387 whole entry): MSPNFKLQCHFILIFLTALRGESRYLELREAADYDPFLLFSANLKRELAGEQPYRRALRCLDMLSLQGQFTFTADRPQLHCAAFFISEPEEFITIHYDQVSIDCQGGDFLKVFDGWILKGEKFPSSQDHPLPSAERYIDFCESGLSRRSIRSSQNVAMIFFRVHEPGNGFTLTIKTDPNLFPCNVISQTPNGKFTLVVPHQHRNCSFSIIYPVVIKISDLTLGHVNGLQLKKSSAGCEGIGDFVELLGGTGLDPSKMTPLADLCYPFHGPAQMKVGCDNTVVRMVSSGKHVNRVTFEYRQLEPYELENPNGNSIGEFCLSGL
The assay is described as follows: activators of CRF receptor 2 with binding protein – uHTS hits, confirmation (AID 602473). In kind it is functional. To be noted: read-out: EC50_Mean.

The nature of assay [8]: viability of uninfected HEp-2 cells – cell-based, HTS, cytotoxicity control for RSV inhibitor project, dose response (AID 2410). In kind it is functional. Particulars: human respiratory syncytial virus.
The target of assay [9] is T2, Corticotropin-releasing factor receptor 2/Corticotropin-releasing factor-binding protein. Kind of assay: Dose Response confirmation of uHTS hits for small molecule antagonists of the CRF-binding protein and CRF-R2 receptor complex. The format is functional. Particulars: read-out: IC50_Mean.
In another assay the test system is H9c2. The assay is described as follows: cells. Particulars: Rattus norvegicus, H9c2, Myocardium. In kind it is functional, cell-based.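 Also: confirmatory concentration-response retest of ultra-high-throughput screening hits for modulation of myocardial damage; cell death induced by hydrogen peroxide oxidative stress; compound pretreatment for 60 min then peroxide exposure for 2 h; potency is for protecting the cells against peroxide damage rather than for killing them.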
In another assay the target is Cytochrome P450 2D6 (Homo sapiens, UniProt P10635).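 Also: CYP2D6 member of a cytochrome P450 panel assay.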
Cytochrome P450 2D6, sequence (P10635 whole entry): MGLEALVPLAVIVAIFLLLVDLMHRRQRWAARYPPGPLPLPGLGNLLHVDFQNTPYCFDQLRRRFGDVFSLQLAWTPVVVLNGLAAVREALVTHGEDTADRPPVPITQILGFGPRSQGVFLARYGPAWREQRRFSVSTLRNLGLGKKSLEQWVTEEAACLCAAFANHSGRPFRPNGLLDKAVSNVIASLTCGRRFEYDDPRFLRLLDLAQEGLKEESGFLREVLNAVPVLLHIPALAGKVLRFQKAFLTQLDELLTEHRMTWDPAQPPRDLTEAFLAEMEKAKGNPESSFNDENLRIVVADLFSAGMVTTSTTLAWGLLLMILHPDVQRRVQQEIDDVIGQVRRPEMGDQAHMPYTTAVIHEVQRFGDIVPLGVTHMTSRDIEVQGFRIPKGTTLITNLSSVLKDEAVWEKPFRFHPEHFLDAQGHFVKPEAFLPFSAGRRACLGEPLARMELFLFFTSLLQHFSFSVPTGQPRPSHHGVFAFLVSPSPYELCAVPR

Luciferin 4-monooxygenase, sequence (P08659 whole entry): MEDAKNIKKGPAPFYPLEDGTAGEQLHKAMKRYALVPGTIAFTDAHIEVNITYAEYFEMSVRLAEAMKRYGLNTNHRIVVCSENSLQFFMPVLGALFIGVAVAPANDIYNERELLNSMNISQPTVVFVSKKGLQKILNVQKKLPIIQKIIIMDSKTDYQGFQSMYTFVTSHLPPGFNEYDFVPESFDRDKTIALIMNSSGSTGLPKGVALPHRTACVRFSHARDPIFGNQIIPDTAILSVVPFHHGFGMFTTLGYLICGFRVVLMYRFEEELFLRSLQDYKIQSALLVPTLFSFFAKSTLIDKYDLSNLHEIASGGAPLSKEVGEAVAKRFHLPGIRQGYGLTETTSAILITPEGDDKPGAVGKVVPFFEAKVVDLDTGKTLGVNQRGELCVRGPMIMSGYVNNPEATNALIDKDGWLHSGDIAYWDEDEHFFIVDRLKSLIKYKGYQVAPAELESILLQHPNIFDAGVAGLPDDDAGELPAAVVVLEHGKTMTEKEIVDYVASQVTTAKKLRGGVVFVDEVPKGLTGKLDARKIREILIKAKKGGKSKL

Turning to `Cc1ccccc1OCC(=O)OCC(=O)c1ccc[nH]1`, the IC50 in “cells” is 20.3 µM (active).

As to `CCCCn1c(SCN2C(=O)c3ccccc3C2=O)nc2cc(S(N)(=O)=O)ccc21`, the EC50 in [1] and in assay [2] was > 112 µM (not active) throughout.

For `c1ccc2c(c1)NC(c1ccncc1)n1c-2nc2ccccc21` (stereo not drawn), the IC50 on Protein skinhead-1 is > 100 µM (inactive).

`CCCCOC(=O)c1ccc(NC(=O)c2nn(C)cc2Br)cc1`: the IC50 in “cells” was 12.2 µM (active).

Consider `CCOC(=O)C(C)Oc1cccc2c(=O)n(CC(=O)NCCc3ccc(OC)c(OC)c3)ccc12` (stereo not drawn), for which the EC50 in assay [1] and in [2] was > 112 µM (not active) throughout.

With `COc1cccc(N2CCN(Cc3cccc(Cl)c3)CC2)c1`, the EC50 in [1] and in [2] was > 112 µM (not active) in each case.

Turning to `CCOC(=O)c1csc(-c2snnc2C)n1`, the IC50 in “cells” is 13.2 µM (active).

Consider `Cc1cc(F)ccc1NC(=O)c1cc(S(=O)(=O)N2CCCC2)cn1C`, for which the EC50 in assay [1] and in assay [2] was > 112 µM (not active) each time.

For `Cc1ccc(-n2nc3ccc(NC(=O)/C=C/c4ccco4)cc3n2)cc1C`, the EC50 in [3] was 8.83 µM (active); in [4] it was 11.7 µM (active).

For `COc1ccc(C(=O)CCN2CCCCCC2)cc1`, the EC50 in assay [4] is 124 µM (active). In addition, the IC50 in the assay “cells” is 22.2 µM (active).

`COc1cccc(C2=NN(C(C)=O)C(c3cccs3)C2)c1` (stereo not drawn): on Protein skinhead-1, the IC50 was > 100 µM (inactive).

In the case of `O=C(Nc1cnn(Cc2c(Cl)cccc2Cl)c1)C(c1ccccc1)c1ccccc1`, the EC50 in [5] is 2.06 µM (active); in assay [6], > 60 µM (not active); in assay [1], > 112 µM (not active); in [2], > 112 µM (not active).

Take `CN1C(c2ccccc2)CC(=NO)CC1c1ccccc1` (stereo not drawn): the IC50 in the assay “cells” is 16.6 µM (active).

For `Clc1cccc(-c2nc3ccc(Br)cn3c2Cc2ccsc2)c1`, the IC50 on Protein skinhead-1 was 54.8 µM (inactive).

For the molecule `CN(Cc1cnccn1)C(=O)CC1C(=O)NCCN1Cc1cccc(Oc2ccccc2)c1` (stereo not drawn), the EC50 in assay [1] and in assay [2] was > 112 µM (not active) throughout.

On to `O=C(Nc1nccs1)c1ccccn1`, for which the IC50 in the assay “cells” was 9.47 µM (active).

In the case of `CC(=O)c1cccc(Nc2nc3ccccc3n3cnnc23)c1`, the EC50 in assay [7] was > 53 µM (inactive). Besides, in assay [8], the CC50 is 43.9 µM (active). In addition, the IC50 in assay [9] is < 0.368 µM (active); with H9c2 it was > 79 µM (inactive).

Turning to `O=C1N(c2ccc3c(c2)OCCO3)C(c2ccccc2)C1(F)F` (stereo not drawn), the IC50 in the assay “cells” was 7.43 µM (active).

As for `C#CCN1C(=O)C(O)(CC(=O)c2ccc(OC)c(OC)c2)c2ccccc21` (stereo not drawn), the EC50 in assay [3] was 18 µM (active); in assay [4], 21.2 µM (active).

Take `O=C(COC(=O)[C@@H]1CCCN1C(=O)c1cccs1)NCCc1ccccc1`: the IC50 on Protein skinhead-1 is > 100 µM (inactive).

As for `Cc1ccc(C(=O)N2CCN(c3ccc([N+](=O)[O-])c(NCc4ccco4)c3)CC2)cc1`, the EC50 in assay [1] was 41.3 µM (active); in assay [2], > 112 µM (not active).

Consider `Cn1c(=O)oc2cc(S(=O)(=O)N3CCN(c4cccc(Cl)c4)CC3)ccc21`, for which the EC50 in [1] and in assay [2] was > 112 µM (not active) throughout.

Consider `COc1ccc(-c2nnc(NC(=O)C3=COCCO3)o2)cc1`, for which the IC50 in “cells” is 8.62 µM (active).

Turning to `Fc1ccc(-c2nnn(Cc3nc4ccccc4s3)n2)cc1`, the IC50 at Protein skinhead-1 was 80.1 µM (inactive).

For `Cc1ccc(C)c(NC(=O)c2cc3ccccc3o2)c1`, the IC50 at Protein skinhead-1 is > 100 µM (inactive).

On to `CC(C)c1nnc(NC(=O)CCC(=O)N2CCN(c3ccc(F)cc3)CC2)s1`, for which the EC50 in assay [1] and in assay [2] was > 112 µM (not active) each time.

`CCCCc1ccc(C2C3=C(CC(C)(C)CC3=O)N=C3C2=C(O)c2ccccc23)cc1` (stereo not drawn): the EC50 in assay [3] was 13.2 µM (active); in assay [4] it was 18.2 µM (active).

`CCc1nnc(N/N=C/c2ccc(-c3ccc([N+](=O)[O-])cc3)o2)n1N`: in the assay “cells”, the IC50 is 12.6 µM (active).

In the case of `O=[N+]([O-])c1cc(N=Nc2ccc3ccccc3c2)ccc1O`, the EC50 in [1] was 0.173 µM (active); in assay [2], 2.24 µM (active). The IC50 in “cells” is > 50 µM (active).

For `CCOC(=O)c1c(C)c(-c2ccccc2)n(CC(=O)N2CCCC2)c1C`, the EC50 in assay [1] and in assay [2] was > 112 µM (not active) throughout.

In the case of `O=C(COc1ncnc2c(Cl)cc(Cl)cc12)N1CCCCC1`, at Protein skinhead-1, the IC50 was > 100 µM (inactive).

Turning to `CCN(CC)C(=O)CSc1ncnc2c(-c3ccc(OC)cc3)nsc12`, the EC50 in assay [1] and in assay [2] was > 112 µM (not active) each time.

Take `COc1cccc(-c2nn(-c3ccccc3)cc2C(=O)O)c1`: the EC50 in assay [1] and in assay [2] was > 112 µM (not active) throughout.

Regarding `CCOC(=O)c1c(Nc2ccc(Cl)cc2)sc(/C=C2\C=Nc3ccccc32)c1O`, the EC50 in [3] was 6.61 µM (active); in assay [4], 6.74 µM (active).

`COc1ccc(C(=O)Nc2sc(C)c(C)c2CN2CCOCC2)cc1`: the EC50 was > 112 µM (not active) in [1] and 12.6 µM (active) in [2].

As for `Cc1nc2cc(N3CCCCC3)c(NC(=O)c3ccncc3)cc2c(=O)n1Cc1ccc(Cl)cc1`, the figures for the EC50 in [3] and in [4] were 3.49 µM (active) and 3.8 µM (active), respectively.

On to `COc1cccc(C(=O)N/N=C/C(Br)=C/c2ccccc2)c1`, for which the EC50 in assay [3] was 6.24 µM (active); in [4], 6.47 µM (active).

As to `COc1cc2c(cc1OC)-c1cc(NC3CC3)nc(=O)n1CC2`, the values for the EC50 in assay [1] and in assay [2] were > 112 µM (not active) and 17.6 µM (active), respectively.

With `Cc1ncsc1CCOC(=O)c1ccc([N+](=O)[O-])cc1`, the IC50 in the assay “cells” was 7.56 µM (active).

Consider `CCOc1ccc(-c2cc(C(=O)NCC3CCCO3)c3ccccc3n2)cc1` (stereo not drawn), for which the EC50 in [1] was 47.2 µM (active); in [2] it was > 112 µM (not active).

For the molecule `CCCCC1(CCCC)C(=O)N=C(Nc2cccc(C)c2)NC1=O`, the EC50 in assay [3] was 12.1 µM (active); in assay [7], 3.98 µM (active); in assay [4], 12.2 µM (active). For the same molecule, in assay [9], the IC50 is > 47.1 µM (inactive). In addition, the concentration at half-maximal activity (AC50) at Cytochrome P450 2D6 was 14.1 µM (inconclusive).

Take `COc1cc(/C=C(\C#N)c2nc3ccccc3[nH]2)cc(Br)c1OCc1ccccc1`: the EC50 in [3] is 15.8 µM (active); in assay [4], 16.7 µM (active).

On to `COc1ccc(-c2cc(C(F)(F)F)c(C#N)c(SCC(=O)Nc3nc(C)co3)n2)cc1`, for which the EC50 in assay [3] was 10.9 µM (active); in assay [4], 9.24 µM (active).

On to `CCOC(=O)COc1ccc2c(c1)c(C(C)=O)c(C)n2Cc1ccccc1`, for which the IC50 in the assay “cells” is 7.41 µM (active).

As for `CCCN(CCC)S(=O)(=O)c1ccc(C(=O)Nc2nnc(CSC)o2)cc1`, the EC50 was 14.2 µM (active) in assay [3] and 12.7 µM (active) in assay [4].

Turning to `COc1ccccc1CNC(=O)c1cccc(N(C)C)c1`, the EC50 in assay [1] and in assay [2] was > 112 µM (not active) throughout.

For orientation: CC50 means the concentration that lowers cell viability or growth by half. One may read the AC50 as the concentration at which the activity in the assay is half-maximal.

Source of the values: ChEMBL document CHEMBL1201862, “PubChem BioAssay data set” (2004).
